Source: patent US11274083B2, “Substituted thiophenyl uracils, salts thereof and the use thereof as herbicidal agents” (Syngenta Crop Protection AG, priority 2017, dated 2022)

Key:
Assay type in all cases: in vivo
[1] = system: Digitaria sanguinalis; assay: Herbicidal action post-emergence, greenhouse pot test; details: application rate 20 g/ha
[2] = system: Stellaria media; assay: as above; details: application rate 20 g/ha
Description: (§1) Seeds of mono- and dicotyledonous weed plants and crop plants were laid out in sandy loam soil in plastic or wood-fiber pots, covered with soil and grown under controlled growth conditions in a greenhouse. 2 to 3 weeks after sowing, the trial plants were treated at the one-leaf stage. The compounds of the invention formulated in the form of wettable powders (WP) or as emulsion concentrates (EC) were then sprayed onto the green parts of the plant as an aqueous suspension or emulsion with addition of 0.5% additive at a water application rate equivalent to 600 L/ha. After the trial plants had stood for about 3 weeks in the greenhouse, under optimal growth conditions, the effect of the preparations was scored visually by comparison with untreated controls. For example, 100% efficacy=plants have died, 0% efficacy=like control plants. Tables A1 to A16 below show the efficacies of selected compounds of the general formula (I) according to tables I.1 to I.50 on various harmful plants and an application rate corresponding to 80 g/ha or lower that were obtained by the aforementioned trial method.

[3] = system: Echinochloa crus-galli; assay: as above; details: application rate 20 g/ha
Description: as §1

[4] = system: Amaranthus retroflexus; assay: as above; details: application rate 20 g/ha
Description: as §1

[5] = system: Polygonum convolvulus; assay: as above
Description: as §1

[6] = system: Veronica persica; assay: as above
Description: as §1

[7] = system: Viola tricolor; assay: as above; details: application rate 20 g/ha
Description: as §1

[8] = system: Setaria viridis; assay: as above; details: application rate 20 g/ha
Description: as §1

[9] = system: Matricaria inodora; assay: as above; details: application rate 20 g/ha
Description: as §1

[10] = system: Pharbitis purpurea; assay: as above
Description: as §1

[11] = system: Abutilon theophrasti; assay: as above; details: application rate 20 g/ha
Description: as §1

[12] = system: Triticum aestivum; assay: Crop compatibility post-emergence, greenhouse pot test
Description: as §1, with “plants.” for “plants. Tables A1 to A16 below show the efficacies of selected compounds of the general formula (I) according to tables I.1 to I.50 on various harmful plants and an application rate corresponding to 80 g/ha or lower that were obtained by the aforementioned trial method.”
(§2) Crop plant compatibilities were also scored correspondingly.
(§3) The effects observed are reported here on selected crop plants by comparison, with the untreated controls (values in %).

[13] = system: Oryza sativa; assay: as above
Description: as §1, with “plants.” for “plants. Tables A1 to A16 below show the efficacies of selected compounds of the general formula (I) according to tables I.1 to I.50 on various harmful plants and an application rate corresponding to 80 g/ha or lower that were obtained by the aforementioned trial method.”
as §2, §3

Row | Compound | Triticum aestivum (Efficacy in %) ([12]; application rate 5 g/ha) | Triticum aestivum (Efficacy in %) ([12]; application rate 20 g/ha) | Oryza sativa (Efficacy in %) ([13]; application rate 20 g/ha) | Digitaria sanguinalis (Efficacy in %) [1] | Stellaria media (Efficacy in %) [2] | Echinochloa crus-galli (Efficacy in %) [3] | Amaranthus retroflexus (Efficacy in %) [4] | Polygonum convolvulus (Efficacy in %) ([5]; application rate 20 g/ha) | Veronica persica (Efficacy in %) ([6]; application rate 20 g/ha) | Viola tricolor (Efficacy in %) [7] | Setaria viridis (Efficacy in %) [8] | Matricaria inodora (Efficacy in %) [9] | Pharbitis purpurea (Efficacy in %) ([10]; application rate 20 g/ha) | Abutilon theophrasti (Efficacy in %) [11] | Oryza sativa (Efficacy in %) ([13]; application rate 5 g/ha) | Veronica persica (Efficacy in %) ([6]; application rate 5 g/ha) | Polygonum convolvulus (Efficacy in %) ([5]; application rate 5 g/ha) | Pharbitis purpurea (Efficacy in %) ([10]; application rate 5 g/ha)
1 | CC(Sc1cc(-n2c(=O)cc(C(F)(F)F)n(C)c2=O)c(F)cc1Cl)C(=O)OCC1CCC(=O)O1 (stereo not shown) [I.1-145] |  |  |  |  |  |  |  |  |  |  |  |  |  |  | 20% |  |  | 
2 | CCOC(=O)C1(COC(=O)C(C)Sc2cc(-n3c(=O)cc(C(F)(F)F)n(C)c3=O)c(F)cc2Cl)CCOCC1 (stereo not shown) [I.1-293] |  |  |  | 100% | 100% | 90% | 100% |  | 100% | 100% | 90% | 100% |  | 100% |  |  |  | 
3 | CCC(Sc1cc(-n2c(=O)cc(C(F)(F)F)n(C)c2=O)c(F)cc1Cl)C(=O)OCC1CCC(=O)O1 (stereo not shown) [I.2-145, (5-Oxotetrahydrofuran-2-yl)methyl 2-({2-chloro-4-fluoro-5-[3-methyl-2,6-dioxo-4-(trifluoromethyl)-3,6-dihydropyrimidin-1(2H)-yl]phenyl}sulfanyl)butanoate] |  | 20% | 0% | 100% | 100% | 100% | 100% | 100% | 100% | 100% | 100% | 100% |  | 100% |  |  |  | 
4 | CCOC(=O)CCOC(=O)C(CC(C)C)Sc1cc(-n2c(=O)cc(C(F)(F)F)n(C)c2=O)c(F)cc1Cl (stereo not shown) [I.4-3, 3-Ethoxy-3-oxopropyl 2-({2-chloro-4-fluoro-5-[3-methyl-2,6-dioxo-4-(trifluormethyl)-3,6-dihydropyrimidin-1(2H)-yl]phenyl}sulfanyl)-4-methylpentanoate] |  |  |  |  |  |  | 100% |  | 80% | 100% | 90% | 80% |  | 100% |  |  |  | 
5 | CCOC(=O)COC(=O)C(COC)Sc1cc(-n2c(=O)cc(C(F)(F)F)n(C)c2=O)c(F)cc1Cl (stereo not shown) [I.7-43] |  |  |  | 100% |  |  |  |  |  |  |  |  |  |  |  |  |  | 
6 | Cn1c(C(F)(F)F)cc(=O)n(-c2cc(SCC(=O)OCC(=O)OCc3ccccc3)c(Cl)cc2F)c1=O [I.8-46] | 20% |  |  |  | 100% | 90% | 100% | 100% | 100% | 100% | 100% | 100% | 100% | 100% |  |  |  | 
7 | CCOC(=O)CCOC(=O)C(CC)Sc1cc(-n2c(=O)c(C)c(C(F)(F)F)n(C)c2=O)c(F)cc1Cl (stereo not shown) [I.12-3] |  | 20% | 0% | 100% | 100% | 100% | 100% | 100% | 100% | 100% | 100% |  |  | 100% |  |  |  | 100%

Further lines, with some results ahead:

Row | Triticum aestivum (Efficacy in %) ([12]; application rate 5 g/ha) | Triticum aestivum (Efficacy in %) ([12]; application rate 20 g/ha) | Oryza sativa (Efficacy in %) ([13]; application rate 20 g/ha) | Compound | Digitaria sanguinalis (Efficacy in %) [1] | Stellaria media (Efficacy in %) [2] | Echinochloa crus-galli (Efficacy in %) [3] | Amaranthus retroflexus (Efficacy in %) [4] | Polygonum convolvulus (Efficacy in %) ([5]; application rate 20 g/ha) | Veronica persica (Efficacy in %) ([6]; application rate 20 g/ha) | Viola tricolor (Efficacy in %) [7] | Setaria viridis (Efficacy in %) [8] | Matricaria inodora (Efficacy in %) [9] | Pharbitis purpurea (Efficacy in %) ([10]; application rate 20 g/ha) | Abutilon theophrasti (Efficacy in %) [11] | Oryza sativa (Efficacy in %) ([13]; application rate 5 g/ha) | Veronica persica (Efficacy in %) ([6]; application rate 5 g/ha) | Polygonum convolvulus (Efficacy in %) ([5]; application rate 5 g/ha) | Pharbitis purpurea (Efficacy in %) ([10]; application rate 5 g/ha)
8 | 0% |  |  | CCCCOC(=O)COC(=O)C(C)Sc1cc(-n2c(=O)cc(C(F)(F)F)n(C)c2=O)c(F)cc1Cl (stereo not shown) [I.1-51] | 90% | 100% | 100% | 100% | 100% | 100% | 100% | 100% | 100% | 100% | 100% |  |  |  | 
9 |  | 10% | 10% | CCOC(=O)COC(=O)C(CC(C)C)Sc1cc(-n2c(=O)cc(C(F)(F)F)n(C)c2=O)c(F)cc1Cl (stereo not shown) [I.4-43] |  | 80% |  | 100% | 100% | 100% | 100% |  | 90% |  | 100% |  |  |  | 
10 |  |  | 20% | CCOC(=O)CCOC(=O)C(Sc1cc(-n2c(=O)cc(C(F)(F)F)n(C)c2=O)c(F)cc1Cl)C(C)C (stereo not shown) [I.6-3, 3-Ethoxy-3-oxopropyl 2-({2-chloro-4-fluoro-5-[3-methyl-2,6-dioxo-4-(trifluoromethyl)-3,6-dihydropyrimidin-1(2H)-yl]phenyl}sulfanyl)-3-methylbutanoate] | 100% | 100% |  | 100% |  | 100% | 100% | 100% | 100% |  | 100% |  |  |  | 
11 |  |  | 0% | CCOC(=O)COC(=O)C(Sc1cc(-n2c(=O)cc(C(F)(F)F)n(C)c2=O)c(F)cc1Cl)C(C)C (stereo not shown) [I.6-43, 2-Ethoxy-2-oxoethyl 2-({2-chloro-4-fluoro-5-[3-methyl-2,6-dioxo-4-(trifluoromethyl)-3,6-dihydropyrimidin-1(2H)-yl]phenyl}sulfanyl)-3-methylbutanoate] |  | 90% |  |  |  |  | 100% |  |  |  | 100% |  | 100% |  | 
12 | 10% |  |  | CCOC(=O)COC(=O)CSc1cc(-n2c(=O)cc(C(F)(F)F)n(C)c2=O)c(F)cc1Cl [I.8-43] |  | 80% | 90% | 100% | 100% | 100% | 100% | 100% | 100% | 100% | 100% |  |  |  | 
13 | 20% |  |  | CC(C)OC(=O)COC(=O)CSc1cc(-n2c(=O)cc(C(F)(F)F)n(C)c2=O)c(F)cc1Cl [I.8-44] |  | 100% |  | 100% |  | 100% | 100% | 100% | 100% | 100% | 100% |  |  | 100% | 
14 |  | 20% | 0% | CCCCOC(=O)COC(=O)CSc1cc(-n2c(=O)cc(C(F)(F)F)n(C)c2=O)c(F)cc1Cl [I.8-51] | 100% |  | 90% | 100% | 100% | 100% | 100% | 100% | 100% | 100% | 100% |  |  |  | 
15 | 10% |  | 10% | CCOC(=O)CCOC(=O)C(C)Sc1cc(-n2c(=O)c(C)c(C(F)(F)F)n(C)c2=O)c(F)cc1Cl (stereo not shown) [I.11-3] |  | 100% | 100% |  |  |  | 90% |  | 90% |  | 100% |  |  |  | 
16 |  | 20% | 20% | CCCCC(Sc1cc(-n2c(=O)cc(C(F)(F)F)n(C)c2=O)c(F)cc1Cl)C(=O)OCCC(=O)OCC (stereo not shown) [I.47-3] | 100% |  | 80% | 100% | 100% | 100% | 100% | 100% | 100% | 100% | 100% |  |  |  | 
